Laboratory results from PubChem BioAssay (NCI).
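GI50: concentration for 50% inhibition of growth. The concentration for full growth arrest is given as TGI.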

Tests used:
Experiment in all cases: growth of human tumour cells (NCI), 384-well format
[1] = test system: 786-0 renal
[2] = test system: A498 renal
[3] = test system: A549 NSCLC
[4] = test system: ACHN renal
[5] = test system: BT-549 breast
[6] = test system: CAKI-1 renal
[7] = test system: COLO 205 colon
[8] = test system: DU-145 prostate
[9] = test system: EKVX NSCLC
[10] = test system: HCT-116 colon
[11] = test system: HCT-15 colon
[12] = test system: HL-60(TB) leukemia
[13] = test system: HOP-62 NSCLC
[14] = test system: HOP-92 NSCLC
[15] = test system: HS 578T breast
[16] = test system: HT29 colon
[17] = test system: IGROV1 ovarian
[18] = test system: K-562 leukemia
[19] = test system: KM12 colon
[20] = test system: M14 melanoma
[21] = test system: MALME-3M melanoma
[22] = test system: MCF7 breast
[23] = test system: MDA-MB-231 breast
[24] = test system: MDA-MB-435 melanoma
[25] = test system: MDA-MB-468 breast
[26] = test system: MOLT-4 leukemia
[27] = test system: NCI-H226 lung
[28] = test system: NCI-H23 lung
[29] = test system: NCI-H322M lung
[30] = test system: NCI-H460 NSCLC
[31] = test system: NCI-H522 lung
[32] = test system: OVCAR-3 ovarian
[33] = test system: OVCAR-4 ovarian
[34] = test system: OVCAR-5 ovarian
[35] = test system: OVCAR-8 ovarian
[36] = test system: PC-3 prostate
[37] = test system: RXF 393 renal
[38] = test system: SF-268 CNS
[39] = test system: SF-295 CNS
[40] = test system: SF-539 CNS
[41] = test system: SK-MEL-2 melanoma
[42] = test system: SK-MEL-28 melanoma
[43] = test system: SK-MEL-5 melanoma
[44] = test system: SK-OV-3 ovarian
[45] = test system: SN12C renal
[46] = test system: SNB-19 CNS
[47] = test system: SNB-75 CNS
[48] = test system: SR leukemia
[49] = test system: SW-620 colon
[50] = test system: T-47D breast
[51] = test system: TK-10 renal
[52] = test system: U251 glioblastoma
[53] = test system: UACC-257 melanoma
[54] = test system: UACC-62 melanoma
[55] = test system: UO-31 renal

Compound `O=C1COc2c(CCNCCN(C(=O)CCNCCc3ccc(Cl)c(Cl)c3)C3CCCCC3)ccc(O)c2N1` has a GI50 [1] of 15.8 µM, a TGI [1] of 29.3 µM and a GI50 [2] of 14.9 µM. It also gave a TGI [2] of 28.2 µM, a GI50 [3] of 17.5 µM and a TGI [3] of 31.4 µM. The GI50 [4] was 15.5 µM, the TGI [4] was 28.9 µM and the GI50 [5] was 3.29 µM. For the same compound, the TGI [5] was 12 µM, the GI50 [6] was 14.5 µM and the TGI [6] was 27.7 µM. For the same compound, the GI50 [7] was 2.69 µM, the TGI [7] was 6.13 µM and the GI50 [8] was 16.2 µM. It also gave a TGI [8] of 29.8 µM, a GI50 [9] of 12.4 µM and a TGI [9] of 24.9 µM. For the same compound, the GI50 [10] was 11.5 µM, the TGI [10] was 23.7 µM and the GI50 [11] was 17.8 µM. The TGI [11] was 31.9 µM, the GI50 [12] was 1.83 µM and the TGI [12] was 3.25 µM. For the same compound, the GI50 [13] was 14.5 µM, the TGI [13] was 27.7 µM and the GI50 [14] was 1.89 µM. The TGI [14] was 4.35 µM, the GI50 [15] was 1.76 µM and the TGI [15] was 3.44 µM. It also gave a GI50 [16] of 13.4 µM, a TGI [16] of 26.2 µM and a GI50 [17] of 7.16 µM. For the same compound, the TGI [17] was 19.7 µM, the GI50 [18] was 3.24 µM and the TGI [18] was 10.3 µM. For the same compound, the GI50 [19] was 11.1 µM, the TGI [19] was 23.3 µM and the GI50 [20] was 4.2 µM. The TGI [20] was 12.9 µM, the GI50 [21] was 5.14 µM and the TGI [21] was 15.6 µM. It also gave a GI50 [22] of 1.89 µM, a TGI [22] of 3.38 µM and a GI50 [23] of 1.88 µM. It also gave a TGI [23] of 10.7 µM, a GI50 [24] of 2.12 µM and a TGI [24] of 4.44 µM. The GI50 [25] was 1.83 µM, the TGI [25] was 3.27 µM and the GI50 [26] was 2.01 µM. It also gave a TGI [26] of 3.45 µM, a GI50 [27] of 12.3 µM and a TGI [27] of 24.8 µM. It also gave a GI50 [28] of 14.8 µM, a TGI [28] of 28 µM and a GI50 [29] of 14.2 µM. For the same compound, the TGI [29] was 27.3 µM, the GI50 [30] was 2.26 µM and the TGI [30] was 4.96 µM. For the same compound, the GI50 [31] was 2.5 µM, the TGI [31] was 5.7 µM and the GI50 [32] was 10.3 µM. The TGI [32] was 22 µM, the GI50 [33] was 16.1 µM and the TGI [33] was 29.7 µM. It also gave a GI50 [34] of 16.2 µM, a TGI [34] of 29.8 µM and a GI50 [35] of 15.1 µM. For the same compound, the TGI [35] was 28.5 µM, the GI50 [36] was 10.8 µM and the TGI [36] was 22.8 µM. For the same compound, the GI50 [37] was 2.86 µM, the TGI [37] was 10.8 µM and the GI50 [38] was 4.73 µM. It also gave a TGI [38] of 16.1 µM, a GI50 [39] of 13.7 µM and a TGI [39] of 26.6 µM. It also gave a GI50 [40] of 11.2 µM, a TGI [40] of 23.3 µM and a GI50 [41] of 1.79 µM. It also gave a TGI [41] of 3.18 µM, a GI50 [42] of 4.31 µM and a TGI [42] of 14.6 µM. It also gave a GI50 [43] of 6.31 µM, a TGI [43] of 18.1 µM and a GI50 [44] of 15.5 µM. The TGI [44] was 28.9 µM, the GI50 [45] was 15.8 µM and the TGI [45] was 29.3 µM. It also gave a GI50 [46] of 16.8 µM, a TGI [46] of 30.5 µM and a GI50 [47] of 2.28 µM. It also gave a TGI [47] of 7.25 µM, a GI50 [48] of 1.75 µM and a TGI [48] of 3.14 µM. For the same compound, the GI50 [49] was 5.25 µM, the TGI [49] was 16.8 µM and the GI50 [50] was 4.22 µM. It also gave a TGI [50] of 14.6 µM, a GI50 [51] of 10.4 µM and a TGI [51] of 22.2 µM. It also gave a GI50 [52] of 5.85 µM, a TGI [52] of 18 µM and a GI50 [53] of 2.75 µM. The TGI [53] was 6.62 µM, the GI50 [54] was 2.1 µM and the TGI [54] was 4.82 µM. It also gave a GI50 [55] of 17.8 µM and a TGI [55] of 31.7 µM.
